# Tested on: C. elegans Q35::YFP muscle, polyQ foci count microscopy
# Assay: PubChem AID 651963
# Details: at 10 µM; active compounds read low
compound,measurement,value
COc1ccc(/C=C/C=C2C(=O)NC(=O)NC2=O)cc1,relative foci,33.8%

# From PubChem BioAssay AID651963 (The Scripps Research Institute Molecular Screening Center, 2012)
